Reference: patent publication US20260355147A1, “COMPOSITIONS COMPRISING TRIGONELLINE AND A UROLITHIN” (Amazentis SA, priority 2023, published 2026)

Legend:
C2C12 myotubes = test: Mitochondrial respiration in C2C12 myotubes (Seahorse XF96, fatty acid oxidation analysis); format: cell-based, Mouse; settings: 50 uM, 24 hours (FIG. 1)
Procedure: A combined treatment of urolithin A and trigonelline was performed and mitochondrial respiration was measured in rodent skeletal muscle cells.
Fatty acid oxidation analysis on C2C12 myotubes was measured with a Seahorse XF96 extracellular flux analyzer. C2C12s were seeded at 8,000 cells/well in an XF96 cell culture microplate. Once cells reached confluence, they were differentiated with DMEM (Gibco, 31966047) supplemented with 2% Horse serum, 1% PenStrep and 1% Hepes for 5 days. Cells were treated with UA 50 uM and Trigonelline 50 uM (Sigma, T5509) for 24 hours in substrate-limited media (Gibco, A1443001) supplemented with 0.5 mM glucose, 1 mM glutamine, 1% Oleic acid and 0.5 mM L-Carnitine. Maximal respiration was monitored by injection of 3 μM FCCP in the cartridge. Prior to the assay, cells were incubated in a Fatty acid oxidation medium (111 mM NaCl, 4.7 mM KCl, 1.25 mM CaCl2, 2 mM MgSO4, 1.2 mM NaH2PO4, 5 mM L-Carnitine, 5 mM Hepes, 2.5 mM Glucose) for 20 min, solution must be adjusted to pH 7.4 at 37 °C.

[1] = test system: HSMM human primary skeletal muscle myoblasts; test: Mitochondrial respiration (oxygen consumption rate) in human primary skeletal muscle myoblasts HSMM (Seahorse XF96); format: cell-based; settings: 24 hours, normalized over cellular DNA content
Procedure: Cells were treated as indicated with Urolithin A (UA) 6.25 uM and trigonelline (Trig) 500 uM, alone or in combination. DMSO 0.1% was used as control. Data are expressed as mean+/−SD. One-Way ANOVA, * p.val.<0.05.
A combined treatment of urolithin A and trigonelline was performed and mitochondrial respiration was measured in human primary skeletal muscle cells.
Mitochondrial respiration was measured as oxygen consumption rate on HSMM (LZ-CC-2580, Lonza), human primary skeletal muscle myoblasts was measured with a Seahorse XF96 extracellular flux analyzer. HSMMs were seeded at 3,500 cells/well in an XF96 cell culture microplate and cultured at 37 °C in a humidified atmosphere of 5% C02 in SKM-M Growth medium (AMSbio). […] Oxygen consumption rate was measured in Krebs Cycle medium (135 mM NaCl, KCL 3.6 mM, 0.5 mM NaH2PO4, 0.5 mM MgSO4, 10 mM HEPES, 5 mM NaHCO3) supplemented with 10 mM Glucose, 10 mM pyruvate and 2 mM Glutamine. Maximal respiration was monitored by injection of 6 μM FCCP in the cartridge. To normalize for differences in cell number across well, cellular DNA content was measured in the same microplate using the CyQuant NF kit (Thermofisher, C35006), following the manufacturer's instructions. Normalized mitochondrial respiration was then calculated as ratio between oxygen consumption rate and DNA content and expressed as fold change over the DMSO of the basal condition.

C2C12 muscle cell line = settings: Ryu, D. et al. Nature Medicine 2016, 22, 879; cited from earlier work
rodent tissues = settings: in vivo; cited from earlier work
skeletal muscle cells = settings: cited from earlier work
HSMM myotubes = settings: only at 1000 uM, 72 h, with simultaneous blocking of NAD+ salvage pathway with FK866; cited from earlier work
muscle mass = settings: in vivo; cited from earlier work
human cells = settings: at this dose (50 uM); FIG. 1 of US 2022/0241259 A1; cited from earlier work
C. elegans = settings: in vivo; cited from earlier work

| Structure (SMILES) | mitochondrial respiration (C2C12 myotubes; urolithin A alone) | mitochondrial respiration ([1]; urolithin A alone, 6.25 uM) | mitochondrial respiration (C2C12 muscle cell line) | NAD^+ levels in rodent tissues (rodent tissues) | mitochondrial respiration (C2C12 myotubes; trigonelline alone) | NAD^+ levels in skeletal muscle cells (skeletal muscle cells) | mitochondrial respiration ([1]; trigonelline alone, 500 uM) | mitochondrial respiration in HSMM myotubes (HSMM myotubes) | muscle mass in rodents (muscle mass) | biological effect on NAD production in human cells (human cells) | lifespan in C. elegans models (C. elegans) |
| --- | --- | --- | --- | --- | --- | --- | --- | --- | --- | --- | --- |
| O=c1oc2cc(O)ccc2c2ccc(O)cc12 [Urolithin A, urolithin A] | induced mitochondrial respiration | induced mitochondrial respiration | induced mitochondrial respiration as shown previously in the C2C12 muscle cell line |  |  |  |  |  |  |  |  |
| C[n+]1cccc(C(=O)[O-])c1 [trigonelline] |  |  |  | help to increase NAD^+ levels | Mitochondrial respiration was also increased | help to increase NAD^+ levels | Mitochondrial respiration was also increased | improvement in mitochondrial respiration | induce muscle mass | not shown to have a significant biological effect on NAD production | increase lifespan |
